Test results as given in patent publication US4272541A, “7,8 and 7-8 Substituted 4,5α-epoxymorphinan-6-one compounds, and methods of treating pain and drug dependence with them” (Miles Laboratories, Inc., priority 1979, dated 1981).
Counter-ions that a name gives are not always drawn. Like-named read-outs stand apart in the source and are kept apart here.

Assays:
[1] = tested on: writhing; assay: Acetic acid mouse writhing test (analgesic effects); type: in vivo, mice (male CD-1); settings: for analgesic activity / analgesic/narcotic antagonist profile: in words; for analgesic/narcotic antagonist profile: from writhing ED50 and tail flick AD50 together
Experimental: (A) Analgesic effects upon mice (acetic acid writhing test).
TEST A. ACETIC ACID MOUSE WRITHING TEST
The analgesic effects of test compounds were determined in mice by use of the acetic acid writhing test described by B. J. R. Whittle, Brit. J. Pharmacol., 22:246 (1964). In this test at least three groups of five male CD-1 mice (18-22 g) each were given subcutaneous doses of the test drug dissolved in either distilled water or distilled water acidified with HCl depending on the solubility of the compound. In all cases, 0.4 milliliter of a 0.5% V/V acetic acid in distilled water solution was administered intraperitoneally 15 minutes post drug. The number of writhes in a 20 min. interval beginning 5 minutes after the acetic acid injection were determined and compared with the number of writhes in control groups which had received only acetic acid.
Percent inhibition of writhing was calculated as: [formula]
The ED50 dose, i.e., the dose required to reduce the number of writhes by 50%, was determined graphically from a plot of % inhibition as a probit versus log dose. Confidence limits of 95% were calculated on the basis of those results falling in the range 16-84% inhibition. See Litchfield, J. T. and Wilcoxon, F., J. Pharmacol. Exp. Ther., 96, 99-113, (1949).

[2] = tested on: morphine effect; assay: Narcotic antagonist activity, modified rat tail flick test; type: in vivo, rats (male albino Wistar); settings: for ED50: Rattus norvegicus, ip, read-out: AD50 (the source's name); for narcotic antagonist activity: in words
Experimental: (B) Narcotic antagonist activity in rats (modified rat tail flick test).
TEST B. EVALUATION OF NARCOTIC ANTAGONIST ACTIVITY
The narcotic antagonist effects of test compounds were determined by a modification of the rat tail flick procedure of Harris and Pierson (J. Pharmacol. Exp. Ther. 143,141 [1964]).
Male albino Wistar rats (100-120 g) were used for this study. A rat's tail is so placed so as to cover a photocell. Heat is applied by a lamp in a reflector with a timer being connected to the lamp and photocell so that the timer goes on when the light is turned on and is turned off when the photocell is uncovered. A rheostat, incorporated into a heating lamp is used to adjust the intensity of the light falling on the tail of the rat such that the rat's control reaction time is from two to four seconds. Animals with a control reaction time outside this range are rejected. The rheostat adjustment is made only if a significant proportion (more than 2 out of every 10 rats) of the reaction times are outside the range of two to four seconds. Groups of five rats were used each time, and two control times were determined at 60 and 30 minutes prior to subcutaneous injection of the drug.
Thirty minutes after the last control run the test drug was given intraperitoneally. This was followed ten minutes later by an ED80 dose of morphine subcutaneously. The animals were retested at 20 minutes after the morphine injection. Control animals were given vehicle and morphine only. The data were calculated as follows: [formula]
The data were plotted on log-probit paper and AD50 values, i.e., the dose required to inhibit the morphine effect by 50% within 95% confidence limits, were determined by the method of Litchfield and Wilcoxon.

[3] = Mus musculus, sc, 0.25 h, mice, subcutaneous, acetic acid i.p. 15 minutes post drug, Table I, read-out: ED50
[4] = rats, test drug i.p. 10 minutes before ED80 dose of morphine s.c., Table I
[5] = mice, subcutaneous, acetic acid i.p. 15 minutes post drug, Table I

SMILES	ED50 [1, 3] [mg/kg]	ED50 [2, 4] [mg/kg]	analgesic/narcotic antagonist profile [1]	further results
CC[C@H]1CC(=O)[C@@H]2Oc3c(O)ccc4c3[C@@]23CCN(CC2CCCO2)[C@H](C4)[C@H]13.Cl (stereo partly drawn) [TR-5271, 4,5α-Epoxy-8β-ethyl-3-hydroxy-17-tetrahydrofurfuryl-morphinan-6-one Hydrochloride]	1.06	1.8	–	analgesic activity [1]: especially effective analgesics
CC[C@H]1CC(=O)[C@@H]2Oc3c(O)ccc4c3[C@@]23CCN(CC2CCC2)[C@H](C4)[C@H]13 [TR-5115, 17-Cyclobutylmethyl-4,5α-epoxy-8β-ethyl-3-hydroxymorphinan-6-one]	9.2	0.52	–	narcotic antagonist activity [2]: especially effective narcotic antagonists
CC[C@@H]1CC(=O)[C@@H]2Oc3c(O)ccc4c3[C@@]23CCN(CC2CC2)[C@H](C4)[C@H]13.Cl [TR-5436, 17-Cyclopropylmethyl-4,5α-epoxy-8α-ethyl-3-hydroxymorphinan-6-one Hydrochloride]	0.36	4.1	mixed analgesic/narcotic antagonist	analgesic activity [1]: strong analgesic; narcotic antagonist activity [2]: also exhibits narcotic antagonist activity
C=CCN1CC[C@]23c4c5ccc(O)c4O[C@H]2C(=O)C[C@H](CC)[C@H]3[C@H]1C5.Cl [TR-5266, 17-Allyl-4,5α-epoxy-8β-ethyl-3-hydroxymorphinan-6-one Hydrochloride]	–	0.58	–	analgesic activity [1]: except for TR-5266 they demonstrate analgesic activity; ED50 [1, 5]: IA 10; narcotic antagonist activity [2]: especially effective narcotic antagonists
COc1ccc2c3c1O[C@H]1C(=O)[C@@H](C)C[C@H]4[C@@H](C2)N(CC2CCC2)CC[C@]314.Cl [TR-5403, 17-Cyclobutylmethyl-4,5α-epoxy-3-methoxy-7α-methylmorphinan-6-one Hydrochloride]	9	–	–	ED50 ([2]; rats, vs morphine, *Estimated): 16.5 mg/kg
COc1ccc2c3c1O[C@H]1C(=O)[C@@H](C)[C@H](C)[C@H]4[C@@H](C2)N(CC2CCC2)CC[C@@]341 [TR-5429, 17-Cyclobutylmethyl-7α,8β-dimethyl-4,5α-epoxy-3-methoxymorphinan-6-one]	> 10	~10	–	–
C[C@@H]1[C@H]2[C@H]3Cc4ccc(O)c5c4[C@@]2(CCN3CC2CC2)[C@@H](O5)C(=O)[C@H]1C.Cl [TR-5416, 17-Cyclopropylmethyl-7α,8β-dimethyl-4,5α-epoxy-3-hydroxymorphinan-6-one Hydrochloride]	–	0.57	pure narcotic antagonist	ED50 [1, 5]: IA 10
Br.COc1ccc2c3c1O[C@H]1C(=O)CC[C@H]4[C@@H](C2)N(CC2CCC2)CC[C@]314 [TR-5108, 17-Cyclobutylmethyl-4,5α-epoxy-3-methoxymorphinan-6-one Hydrobromide, reference compound]	8.8	–	–	AD50 [2, 4]: IA.3
CC[C@H]1CC(=O)[C@@H]2Oc3c(O)ccc4c3[C@@]23CCN(CC2CC2)[C@H](C4)[C@H]13 [TR-5126, 17-Cyclopropylmethyl-4,5α-epoxy-8β-ethyl-3-hydroxymorphinan-6-one]	7.8	0.25	–	narcotic antagonist activity [2]: especially effective narcotic antagonists
C[C@@H]1[C@H]2[C@H]3Cc4ccc(O)c5c4[C@@]2(CCN3CC2CCC2)[C@@H](O5)C(=O)[C@H]1C [TR-5430, 17-Cyclobutylmethyl-7α,8β-dimethyl-4,5α-epoxy-3-hydroxymorphinan-6-one]	5.8	2.5	mixed analgesics/narcotic antagonists	–
C[C@H]1C[C@H]2[C@H]3Cc4ccc(O)c5c4[C@@]2(CCN3CC2CCC2)[C@@H](O5)C1=O [TR-5404, 17-Cyclobutylmethyl-4,5α-epoxy-3-hydroxy-7α-methylmorphinan-6-one Hydrochloride]	0.3	13.2	–	–
COc1ccc2c3c1O[C@H]1C(=O)CC[C@H]4[C@@H](C2)N(CC2CC2)CC[C@]314 [TR-5095, 7,8-dihydro-17-cyclopropylmethylnorcodeinone, reference compound]	17	3.4	–	–
C[C@H]1C[C@H]2[C@H]3Cc4ccc(O)c5c4[C@@]2(CCN3CC2CC2)[C@@H](O5)C1=O [TR-5402, 17-Cyclopropylmethyl-4,5α-epoxy-3-hydroxy-7α-methylmorphinan-6-one]	0.42	–	mixed analgesics/narcotic antagonists	ED50 ([1]; Mus musculus, sc, agonist-antagonist potency, unit inferred, read-out: ED50): 0.42 mg/kg; ED50 ([2]; agonist-antagonist potency, unit inferred): 1.63 mg/kg
CC[C@@H]1CC(=O)[C@@H]2Oc3c(O)ccc4c3[C@@]23CCN(CC2CCC2)[C@H](C4)[C@H]13.Cl [TR-5437, 17-Cyclobutylmethyl-4,5α-epoxy-8α-ethyl-3-hydroxymorphinan-6-one Hydrochloride]	0.15	> 10	pure analgesic	–
CC[C@@H]1CC(=O)[C@@H]2Oc3c(OC)ccc4c3[C@@]23CCN(CC2CCC2)[C@H](C4)[C@H]13.O=C(O)C(O)C(O)C(=O)O [TR-5428, 17-Cyclobutylmethyl-4,5α-epoxy-8α-ethyl-3-methoxymorphinan-6-one Tartrate]	–	–	–	ED50 [1, 5]: IA 10; AD50 [2, 4]: IA 10
C=CCN1CC[C@]23c4c5ccc(OC)c4O[C@H]2C(=O)C[C@H](CC)[C@H]3[C@H]1C5.Cl [TR-5256, 17-Allyl-4,5α-epoxy-8β-ethyl-3-methoxymorphinan-6-one Hydrochloride]	–	5.6	some mixed analgesic narcotic antagonist activity but is not particularly potent in either respect	–
CC[C@H]1CC(=O)[C@@H]2Oc3c(OC)ccc4c3[C@@]23CCN(CC2CC2)[C@H](C4)[C@H]13.Cl [TR-5109, 17-Cyclopropylmethyl-4,5α-epoxy-8β-ethyl-3-methoxymorphinan-6-one Hydrochloride]	2.1	0.78	–	analgesic activity [1]: especially effective analgesics; narcotic antagonist activity [2]: especially effective narcotic antagonists
COc1ccc2c3c1O[C@H]1C(=O)[C@@H](C)[C@H](C)[C@H]4[C@@H](C2)N(CC2CC2)CC[C@@]341 [TR-5410, 17-Cyclopropylmethyl-7α,8β-dimethyl-4,5-epoxy-3-methoxymorphinan-6-one Hydrochloride]	> 10	0.98	–	–
CC[C@@H]1CC(=O)[C@@H]2Oc3c(OC)ccc4c3[C@@]23CCN(CC2CC2)[C@H](C4)[C@H]13.O=C(O)C(O)C(O)C(=O)O [TR-5427, 17-Cyclopropylmethyl-4,5α-epoxy-8α-ethyl-3-methoxymorphinan-6-one Tartrate]	> 10	> 10	–	–
COc1ccc2c3c1O[C@H]1C(=O)[C@@H](C)C[C@H]4[C@@H](C2)N(CC2CC2)CC[C@]314 [TR-5394, Hydrochloride]	–	1.6	–	ED50 [1, 5]: IA 10
